Test results: patent US20060155119A1, “Ascomycin crystalline forms and preparation thereof” (priority 2004, published 2006)

Experiment: Storing crystalline Ascomycin Form A at 150° C. for 1 hour, solid form checked by PXRD/DSC
Type: physicochemical
Details: solid sample, initial PXRD form A, remark wraps over r7-r8: 'Remained crystalline'
Experimental: The crystalline forms of ascomycin, produced by the methods of the present invention can be analyzed by Powder X-ray diffraction (PXRD) was performed on an X-Ray powder diffractometer, ARL, θ-θ goniometer, Cu-tube, solid state detector with Peltier cooling. The sample holder was a round standard aluminum sample holder with round zero background. Scanning parameters: Range: 2-40 deg.2θ, Continuous Scan, Rate: 3 deg./min.
Ascomycin crystalline forms can also be analyzed by thermal analysis, which can be carried out by […] scanning calorimetry (DSC) and by thermogravimetric analysis (TGA). DSC thermograms can be obtained on a DSC822^e Mettler Toledo instrument (Advanced Instruments, San Juan, Puerto Rico). Sample weight: 3-5 mg; Heating rate: 10° C./min; Number of holes in the crucible: 3. TGA thermograms can be obtained on a Mettler TGA/SDTA 851 instrument (Advanced Instruments, San Juan, Puerto Rico) using a standard Allumina pan. Sample weight: 7-15 mg; Heating rate: 10° C./min.
Starting from Form A having the properties listed in Table 1, incubation at 150° C. for 1 hour produced Ascomycin Form C.

Compound: CC[C@@H]1/C=C(\C)C[C@H](C)C[C@H](OC)[C@H]2O[C@@](O)(C(=O)C(=O)N3CCCC[C@H]3C(=O)O[C@H](/C(C)=C/[C@@H]3CC[C@@H](O)[C@H](OC)C3)[C@H](C)[C@@H](O)CC1=O)[C@H](C)C[C@@H]2OC [Form A, Ascomycin]
- remarks after storing at 150° C. for 1 hour: Remained
